Test results as given in patent publication US20100099109A1, “Methods for Analyzing Drug Response” (NODALITY, INC., A DELAWARE CORPORATION, priority 2008, published 2010).
“Also recorded” adds a separate entry of the source. Read-outs that look alike come from different tables or passages of the source.

Legend:
[1] = tested on: Mylotarg refractory cell lines; test: Mylotarg exposure and modulated signaling in resistant cell lines; format: cell-based; conditions: exposed for 5-15 minutes
Protocol: (§1) The experimental measurements included forward and side scatter, the use of viability dyes (amine aqua and propidium iodide (PI)), and determination of cell cycle and apoptosis by measuring DNA content with DRAQ5. Additionally, cell cycle progression was measured by determining levels of cyclin B1, phosphorylated histone H3, and phosphorylated CDK-1. All these determinations were made in freshly thawed as well as in cultured cycling cells.
(§2) After incubation with fluorochrome-conjugated antibody panels that recognized: p-H2AX, p-Chk2, p-ATM, p-53, cleaved PARP and cleaved caspase 3, cells were processed for cytometry as described above.
(§3) Experiments were conducted in which cell lines were exposed for 5-15 minutes to growth factors and cytokines, after which cells were fixed, permeabilized and incubated with panels of fluorochrome-conjugated antibody panels that recognized intracellular signaling molecules. After processing, cells were acquired on the cytometer.

[2] = tested on: Mylotarg sensitive cell lines; test: Mylotarg exposure and modulated signaling in sensitive cell lines; format: cell-based; conditions: exposed for 5-15 minutes
Protocol: as §1, §2, §3

[3] = tested on: MDR1 drug pump activity in U937 cells; test: Functional drug transporter assay (DIOC2(3) efflux); format: cell-based; conditions: Mylotarg sensitive cell line U937
Protocol: (§4) Determination of transporter functional activity: Transporter activity is measured in subpopulations gated for CD45, CD11b, CD34, CD38, and other surface markers including drug transporters themselves. Fluorescent dyes including calcein-acetoxymethyl ester in the presence or absence of inhibitors cyclosporin or PSC-833 for MDR1, reserpine for BCRP-1 and MK571 or probenecid for MRP-1) are used to evaluate the contribution of each transporter to drug efflux
(§5) Cells are thawed, counted and resuspended at 0.222×10^6/ml in RPMI 10% FBS. This example uses 100,000 cells in 450 microliters aliquoted into 6 columns of a 96 well Deep-Well “Cell Plate”. However, the experimental setup is not limited to using 100,000 cells/condition. KG-1 cells are included as a control since they express functional MDR-1.
(§6) 10× Inhibitor or 10× Mock Solutions are prepared by the following protocols: • 10×PSC-833. Stock Conc=2 mM=2000 uM. 10× Conc=20 uM (1:100). • Combine 25 uL stock with 2475 uL DPBS/0.5% BSA • Note Final Conc DMSO=0.1% • Could likely use a range of PSC-833 Concentrations not limited to 2 uM. • This experiment uses Final Concentration of 2 uM • 10×DMSO buffer (mock) • Combine 25 uL DMSO with 2475 uL DPBS/0.5% BSA […]

[4] = target: T1, MDR1 drug pump activity in KG-1 cells (Homo sapiens, UniProt P08183); test: as above; format: cell-based; conditions: Mylotarg resistant KG-1 cells; co-incubation with inhibitor
T1 construct: KG-1 cells are included as a control since they express functional MDR-1; endogenous in cells; host or cells: KG-1 cells
T1 sequence (P08183 whole entry): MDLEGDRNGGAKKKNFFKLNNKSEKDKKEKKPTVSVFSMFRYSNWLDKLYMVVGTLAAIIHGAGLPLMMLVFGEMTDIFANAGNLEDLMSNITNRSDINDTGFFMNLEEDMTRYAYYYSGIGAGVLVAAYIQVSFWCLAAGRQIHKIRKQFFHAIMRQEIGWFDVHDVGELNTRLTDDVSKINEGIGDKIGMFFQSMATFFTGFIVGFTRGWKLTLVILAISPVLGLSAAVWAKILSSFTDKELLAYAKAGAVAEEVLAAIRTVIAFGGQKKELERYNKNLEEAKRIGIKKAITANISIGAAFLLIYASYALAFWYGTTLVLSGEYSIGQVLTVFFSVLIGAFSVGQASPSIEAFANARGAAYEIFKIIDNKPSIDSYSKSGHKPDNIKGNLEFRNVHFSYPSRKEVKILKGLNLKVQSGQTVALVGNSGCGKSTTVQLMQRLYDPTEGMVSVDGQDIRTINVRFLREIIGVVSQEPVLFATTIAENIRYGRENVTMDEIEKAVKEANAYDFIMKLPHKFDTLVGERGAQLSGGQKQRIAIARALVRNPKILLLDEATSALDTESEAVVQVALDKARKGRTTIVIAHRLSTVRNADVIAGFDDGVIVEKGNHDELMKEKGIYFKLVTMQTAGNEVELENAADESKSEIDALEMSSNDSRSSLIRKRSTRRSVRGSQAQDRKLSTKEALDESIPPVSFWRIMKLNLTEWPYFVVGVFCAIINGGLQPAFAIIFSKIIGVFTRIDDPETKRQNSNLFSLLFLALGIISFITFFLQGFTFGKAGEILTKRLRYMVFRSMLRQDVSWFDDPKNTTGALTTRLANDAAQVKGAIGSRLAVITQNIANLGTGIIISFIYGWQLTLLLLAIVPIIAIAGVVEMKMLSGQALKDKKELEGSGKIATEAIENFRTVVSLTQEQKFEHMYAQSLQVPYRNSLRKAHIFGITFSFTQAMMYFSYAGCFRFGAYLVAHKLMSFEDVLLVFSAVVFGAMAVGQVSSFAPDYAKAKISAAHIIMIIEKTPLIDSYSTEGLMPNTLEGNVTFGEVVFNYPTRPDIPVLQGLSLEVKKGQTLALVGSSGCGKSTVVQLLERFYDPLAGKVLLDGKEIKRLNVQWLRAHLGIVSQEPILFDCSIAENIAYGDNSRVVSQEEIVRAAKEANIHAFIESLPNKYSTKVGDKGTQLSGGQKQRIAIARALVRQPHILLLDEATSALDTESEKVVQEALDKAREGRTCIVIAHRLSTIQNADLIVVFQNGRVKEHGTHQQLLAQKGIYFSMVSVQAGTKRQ
Protocol: as §4, §5, §6

[5] = cited from earlier work
U937 cell line = test: Mylotarg/Nocodazole exposure, multiparameter flow cytometry of DNA damage, cell cycle and apoptosis; format: cell-based; conditions: 24 hours exposure
Source text: ATM activity also phosphorylates Chk2 and p53. […] Cyclin B1 is produced during the G2 phase of the cell cycle and its accumulation drives the cell cycle into M phase. Therefore, low levels of Cyclin B1 mark G1 and S phases, high levels mark G2 phase, and higher levels mark M phase. Histone H3 (S28) becomes phosphorylated in M phase, making p-Histone H3(S28) a useful marker of cells in M phase and not G2. It is also possible to monitor the G2/M phases of the cell cycle by measuring the phosphorylation status of Cdk1, previously known as Cdc2, a cyclin-dependent protein kinase that controls the cell cycle entry from G2 to M phase. An inhibitory phosphorylation on Cdk1 is removed by CDC25C in the M phase transition, allowing G2 cells to be distinguished from M cells based on levels of p-Cdk1. […] Treating cells with the microtubule polymerization inhibitor Nocodazole induces cells cycle arrest in M phase without DNA damage.
as §1, §2

CCCCCCCCCCCCCC(=O)O[C@@H]1[C@@H](C)[C@@]2(O)[C@@H](C=C(CO)C[C@]3(O)C(=O)C(C)=C[C@@H]23)[C@@H]2C(C)(C)[C@]12OC(C)=O [PMA, phorbol myristic acetate]
PMA-mediated p-S6 [1]: increase in p-S6

SCF: growth factor/cytokine modulator of PI3K, Ras/Raf pathways
SCF-mediated p-Akt, p-Erk, and p-S6 [1]: increase

IL-6: cytokine modulator of JAK/STAT pathways
IL-6 mediated p-Stat1 [2]: increased

C/C=C/C[C@@H](C)C(=O)[C@H]1C(=O)N[C@@H](C(C)C)C(=O)N(C)CC(=O)N(C)[C@@H](CC(C)C)C(=O)N[C@@H](C(C)C)C(=O)N(C)[C@@H](CC(C)C)C(=O)N[C@@H](C)C(=O)N[C@H](C)C(=O)N(C)[C@@H](CC(C)C)C(=O)N(C)[C@@H](CC(C)C)C(=O)N(C)[C@@H](C(C)C)C(=O)N1C [PSC-833]
effect on intracellular levels of DIOC2(3) [3]: no effect
effect on MDR1 drug pump activity / intracellular levels of DIOC2(3) [4]: blocked; also recorded: significant increase in intracellular reporter

Nc1ccn([C@@H]2O[C@H](CO)[C@@H](O)[C@@H]2O)c(=O)n1 [Cytarabine]
peak plasma concentration ([5]; high dose, 3 g/m2): 2 µM
peak plasma concentration ([5]; standard dose, 100 mg/m2): approximately 40 nM

COC(=O)Nc1nc2cc(C(=O)c3cccs3)ccc2[nH]1 [Nocodazole]
cell cycle arrest (Cyclin B1, p-Histone H3(S28), p-Cdk1) (U937 cell line): arrest in M rather than G2

COc1cccc2c1C(=O)c1c(O)c3c(c(O)c1C2=O)C[C@@](O)(C(C)=O)C[C@@H]3O[C@H]1C[C@H](N)[C@H](O)[C@H](C)O1 [Daunorubicin]
peak plasma concentration ([5]; 25 mg/m2): 50 ng/mL
peak plasma concentration ([5]; 50 mg/m2): 200 ng/mL
